From patent publication US20220315593A1, “EGFR INHIBITORS FOR THE TREATMENT OF CANCER” (Hoffmann-La Roche Inc., priority 2019, published 2022) come the findings set out here.

As usually defined, the IC50 is the concentration that inhibits the measured activity by half. The low end stands for inhibition by little substance, the high end for a need for much substance.

For test [1], the target named is T1, EGFR TMLR (T790M/L858R), H1975 cell line (Homo sapiens, UniProt P00533, L858R/T790M).
T1 construct: H1975 cell line (CRL-5908; Lot BA70803) was obtained from American Type Culture Collection; host or cells: H1975
T1 sequence (P00533 25-1210 T790M/L858R): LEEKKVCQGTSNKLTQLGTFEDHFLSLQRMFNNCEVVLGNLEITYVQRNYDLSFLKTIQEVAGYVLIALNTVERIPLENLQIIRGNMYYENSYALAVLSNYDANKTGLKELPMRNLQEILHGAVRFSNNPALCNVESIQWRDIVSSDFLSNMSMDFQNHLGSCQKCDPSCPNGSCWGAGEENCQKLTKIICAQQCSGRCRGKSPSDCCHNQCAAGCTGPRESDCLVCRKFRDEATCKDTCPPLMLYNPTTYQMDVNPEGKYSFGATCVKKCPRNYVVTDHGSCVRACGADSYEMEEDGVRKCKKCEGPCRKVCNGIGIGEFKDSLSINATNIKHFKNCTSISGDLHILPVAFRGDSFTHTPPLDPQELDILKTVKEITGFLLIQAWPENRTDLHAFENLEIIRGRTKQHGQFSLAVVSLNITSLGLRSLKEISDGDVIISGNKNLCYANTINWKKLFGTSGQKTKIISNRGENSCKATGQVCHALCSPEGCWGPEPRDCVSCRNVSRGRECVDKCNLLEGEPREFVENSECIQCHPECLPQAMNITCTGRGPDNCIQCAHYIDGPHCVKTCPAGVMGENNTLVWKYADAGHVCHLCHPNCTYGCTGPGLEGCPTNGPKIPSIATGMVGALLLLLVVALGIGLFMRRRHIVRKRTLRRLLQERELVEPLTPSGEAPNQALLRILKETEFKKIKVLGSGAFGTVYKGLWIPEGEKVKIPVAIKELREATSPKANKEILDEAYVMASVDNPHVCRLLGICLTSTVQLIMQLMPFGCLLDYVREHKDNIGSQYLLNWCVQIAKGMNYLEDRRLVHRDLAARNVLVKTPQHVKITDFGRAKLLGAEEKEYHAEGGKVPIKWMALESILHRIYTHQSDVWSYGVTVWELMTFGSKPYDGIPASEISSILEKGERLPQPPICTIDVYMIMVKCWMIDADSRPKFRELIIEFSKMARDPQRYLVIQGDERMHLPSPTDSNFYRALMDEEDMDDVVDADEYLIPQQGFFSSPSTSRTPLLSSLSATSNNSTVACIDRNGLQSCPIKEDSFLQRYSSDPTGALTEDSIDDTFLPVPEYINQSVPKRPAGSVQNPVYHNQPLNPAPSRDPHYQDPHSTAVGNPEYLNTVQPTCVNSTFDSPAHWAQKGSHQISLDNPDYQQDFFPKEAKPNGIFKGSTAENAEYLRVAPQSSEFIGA
Briefly: HTRF Phospho EGFR TMLR Assay (Cellular). It counts as cell-based. Particulars: H1975 cells, 16 hours compound incubation. The procedure: HTRF Phospho EGFR TMLR Assay (Cellular)
H1975 cell line (CRL-5908; Lot BA70803) was obtained from American Type Culture Collection (Manassas, Va., USA). Cells were maintained at 37° C., 5% CO2 in complete Media RPMI 1640 without phenol red containing 0.3 mg/ml glutamine, 100 IU/ml penicillin, and […] streptomycin (Gibco, 15140-122) supplemented with 10% fetal bovine serum (FBS, Gibco, 10091-148). Compounds were diluted into starving medium RPMI 1640 Media (Gibco, 11835-030) without phenol red containing 0.3 mg/ml glutamine, 100 IU/ml penicillin, and […] streptomycin (Gibco).
Cells were cultured for 24 h in a 384-well plate (Greiner Bio-One, Nr. 784-080; 5000 cells/well) using 8 μl of complete medium/well. Then 4 μl/well of the 3× compound solution, containing a factor 3 dilution series of the compound or DMSO in starving medium, were added to the cells (final DMSO 0.33%). After 16 hours at 37° C., 5% CO2, 95% rel. humidity cells were lysed by adding to the compound mix 4 μl/well of the supplemented lysis buffer (Cis-bio, Phospho-EGFR HTRF kit, 64EG1PEH), followed by incubation for 30 min at room temperature with shaking (400 rpm). Then 4 μl of a mixture of anti-Phospho-EGFR Cryptate and of anti-Phospho-EGFR-d2 antibody solutions prepared in the detection buffer was added. The plates were then incubated for 4 h at room temperature before reading the fluorescence emission at 620 and 665 nm using an Envision reader (Perkin Elmer).

Test [2] concerns the target T2, EGFR TMLRCS (T790M/L858R/C797S), BaF3-TMLRCS cell line (Homo sapiens, UniProt P00533, C797S/L858R/T790M).
T2 construct: host or cells: BaF3
Nature of the test: HTRF Phospho EGFR TMLRCS Assay (Cellular). Type of test: cell-based. Conditions: BaF3-TMLRCS cells, 4 hours compound incubation. The procedure:
HTRF Phospho EGFR TMLRCS Assay (Cellular)
BaF3-TMLRCS cell line were obtained from Crownbio (San Diego, Calif., USA). Cells were maintained at 37° C., 5% CO2 in RPMI ATCC (Gibco 31870) +2mM Glutamine+0.5 μg/ml Puromycin supplemented with 10% fetal bovine serum (FBS) (Gibco).
Cells are transferred as above to Greiner Bio-One, Nr. 784-08 micro-titerplate at 20000 cells/well in 12.5 μl of growth medium/well after the plates had been pre-filled with 12.5 nl of DMSO solutions of the to be tested compounds (in dose response) or DMSO only. After spinning the plates at 300×g for 30 seconds the cells were incubated for 4 hours at 37 C, 5% CO2, 95% humidity. The cells were lysed by adding to the compound mix 4 μl/well of the supplemented lysis buffer (Cis-bio, Phospho-EGFR HTRF kit, 64EG1PEH), followed by incubation for 30 min at room temperature with shaking (400 rpm). The plates were then frozen and stored overnight at −80 C. On the next day and after thawing the plates, 4 μl of a mixture of anti-Phospho-EGFR Cryptate and of anti-Phospho-EGFR-d2 antibody solutions prepared in the supplied detection buffer was added to each well. The lidded plates were then incubated for 4 h at room temperature before reading the fluorescence emission at 616 and 665 nm using an Envision reader (Perkin Elmer). Data was analyzed in similar fashion as above using the normalized ratio of the 665 to 616 signals multiplied by 10000.
On the technique in general: Time-resolved FRET reads energy transfer from a long-lived donor to a nearby acceptor.

T2 sequence (P00533 25-1210 T790M/C797S/L858R): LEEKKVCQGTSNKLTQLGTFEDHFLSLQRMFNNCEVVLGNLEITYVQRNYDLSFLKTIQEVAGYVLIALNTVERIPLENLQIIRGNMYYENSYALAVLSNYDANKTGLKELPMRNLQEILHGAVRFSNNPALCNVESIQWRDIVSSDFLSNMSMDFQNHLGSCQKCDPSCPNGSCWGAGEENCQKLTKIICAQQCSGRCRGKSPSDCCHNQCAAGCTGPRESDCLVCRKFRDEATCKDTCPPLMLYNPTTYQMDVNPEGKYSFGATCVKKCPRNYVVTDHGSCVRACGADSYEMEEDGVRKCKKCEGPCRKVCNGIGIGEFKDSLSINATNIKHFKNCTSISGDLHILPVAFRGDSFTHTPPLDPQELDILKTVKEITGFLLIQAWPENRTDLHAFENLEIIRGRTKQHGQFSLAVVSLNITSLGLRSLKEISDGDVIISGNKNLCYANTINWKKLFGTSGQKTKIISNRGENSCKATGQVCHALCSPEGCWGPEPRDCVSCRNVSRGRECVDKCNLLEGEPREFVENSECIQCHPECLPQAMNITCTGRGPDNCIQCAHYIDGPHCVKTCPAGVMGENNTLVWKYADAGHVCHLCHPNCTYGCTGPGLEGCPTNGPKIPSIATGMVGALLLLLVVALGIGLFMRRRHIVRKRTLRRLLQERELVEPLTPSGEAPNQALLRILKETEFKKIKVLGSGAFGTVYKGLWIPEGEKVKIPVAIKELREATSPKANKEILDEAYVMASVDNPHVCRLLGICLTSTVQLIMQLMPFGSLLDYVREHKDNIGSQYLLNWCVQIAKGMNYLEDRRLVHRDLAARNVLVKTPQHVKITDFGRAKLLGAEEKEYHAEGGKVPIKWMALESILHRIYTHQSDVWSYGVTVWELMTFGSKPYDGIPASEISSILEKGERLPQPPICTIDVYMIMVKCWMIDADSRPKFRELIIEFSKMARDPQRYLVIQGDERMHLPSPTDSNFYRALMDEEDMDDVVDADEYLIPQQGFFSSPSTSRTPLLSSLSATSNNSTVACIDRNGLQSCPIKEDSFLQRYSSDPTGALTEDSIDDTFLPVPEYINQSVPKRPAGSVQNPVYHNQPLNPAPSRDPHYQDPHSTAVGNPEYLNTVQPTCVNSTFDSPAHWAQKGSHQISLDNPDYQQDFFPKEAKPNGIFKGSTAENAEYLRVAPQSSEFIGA

`COc1c(-c2ccc(N3CCOCC3)cc2)cc(Cl)c2cn(C(C(=O)Nc3nccs3)c3ncn4c3C[C@@H](F)C4)nc12` (mixture of isomers) [Example 19, 2-[4-Chloro-7-methoxy-6-(4-morpholin-4-ylphenyl)indazol-2-yl]-2-[rac-(6R)-6-fluoro-6,7-dihydro-5H-pyrrolo[1,2-c]imidazol-1-yl]-N-(1,3-thiazol-2-yl)acetamide]: the half-inhibitory concentration (IC50) in test [1] is 1 nM; in test [2], 7 nM. For `O=C(Nc1nccs1)C(c1ncn2c1C[C@@H](F)C2)n1cc2c(F)cc(-c3ccc(N4CCOCC4)c(F)c3)cc2n1` (stereo partly drawn) [Example 5, 2-((R)-6-Fluoro-6,7-dihydro-5H-pyrrolo[1,2-c]imidazol-1-yl)-2-(4-fluoro-6-(3-fluoro-4-morpholinophenyl)-2H-indazol-2-yl)-N-(thiazol-2-yl)acetamide], in that order: 1 nM and 5 nM. `O=C(Nc1nccs1)C(c1ncn2c1CCC2)n1cc2c(Cl)cc(-c3ccc(N4CCOCC4)cc3)c(F)c2n1` (stereo not drawn) [Example 10, 2-(4-Chloro-7-fluoro-6-(4-morpholinophenyl)-2H-indazol-2-yl)-2-(6,7-dihydro-5H-pyrrolo[1,2-c]imidazol-1-yl)-N-(thiazol-2-yl)acetamide] showed an IC50 in test [1] of 1 nM. The same measure, in the same setting: to `O=C(Nc1nccs1)C(c1ncn2c1CCC2)n1cc2c(F)cc(-c3ccc(N4CCOCC4)c(F)c3)cc2n1` (stereo not drawn) [Example 11, 2-(6,7-Dihydro-5H-pyrrolo[1,2-c]imidazol-1-yl)-2-(4-fluoro-6-(3-fluoro-4-morpholinophenyl)-2H-indazol-2-yl)-N-(thiazol-2-yl)acetamide] belongs 1 nM. Turning to `O=C(Nc1nccs1)C(c1ncn2c1CCC2)n1cc2c(Cl)cc(-c3ccc(N4CCOCC4)cc3)c(Cl)c2n1` (stereo not drawn) [Example 14, 2-(4,7-Dichloro-6-(4-morpholinophenyl)-2H-indazol-2-yl)-2-(6,7-dihydro-5H-pyrrolo[1,2-c]imidazol-1-yl)-N-(thiazol-2-yl)acetamide], the IC50 in test [1] turned out to be 3 nM; in test [2] it was 22 nM. With `O=C(Nc1nccs1)C(c1ncn2c1CCC2)n1cc2c(Cl)cc(-c3ccc(N4CCOCC4)c(F)c3)c(F)c2n1` (stereo not drawn) [Example 17, 2-(4-Chloro-7-fluoro-6-(3-fluoro-4-morpholinophenyl)-2H-indazol-2-yl)-2-(6,7-dihydro-5H-pyrrolo[1,2-c]imidazol-1-yl)-N-(thiazol-2-yl)acetamide], the 50% inhibitory concentration (IC50) in test [1] turned out to be 2 nM. In other words, the single-digit nanomolar range.
